The source of these data is patent US11702404B2, “GLP-1R modulating compounds” (priority 2019, dated 2023).

Like-named read-outs stand apart in the source and are kept apart here.

One data set has as its target GLP-1R (Homo sapiens, UniProt P43220). Nature of the data set: GLP-1R activation: cAMP increase in CHO cells stably expressing GLP-1R. The data set is classed as cell-based.
The nature of data set [1]: Microsomal stability, human liver microsomes (predicted hepatic clearance). The conditions noted are these: predicted from in vitro microsomal stability data.
[2] abbreviates: cAMP increase, CHO cells stably expressing GLP-1R, 10 point dose response, 30 minutes incubation, read-out: EC50.

GLP-1R, sequence (P43220 24-463): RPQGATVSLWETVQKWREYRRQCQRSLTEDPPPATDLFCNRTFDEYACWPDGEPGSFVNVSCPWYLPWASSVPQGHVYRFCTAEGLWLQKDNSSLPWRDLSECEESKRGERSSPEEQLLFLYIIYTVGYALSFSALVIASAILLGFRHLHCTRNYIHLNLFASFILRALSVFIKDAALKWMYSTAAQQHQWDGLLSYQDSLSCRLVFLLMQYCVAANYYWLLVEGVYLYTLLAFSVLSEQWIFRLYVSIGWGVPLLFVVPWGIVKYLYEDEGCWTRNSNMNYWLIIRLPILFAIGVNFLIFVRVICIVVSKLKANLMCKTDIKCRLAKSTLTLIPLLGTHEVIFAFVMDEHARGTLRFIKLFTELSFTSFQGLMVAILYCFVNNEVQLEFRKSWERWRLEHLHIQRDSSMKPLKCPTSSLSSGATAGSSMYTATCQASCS

A word on the EC50: it is the concentration at which the effect is half-maximal. Turning to `COCCn1c(Cc2ccc(-c3cccc(OCc4cccc(C(C)C)c4F)n3)cc2F)nc2ccc(C(=O)O)cc21` [Example 158, 2-(2-fluoro-4-(6-((2-fluoro-3-isopropylbenzyl)oxy)pyridin-2-yl)benzyl)-1-(2-methoxyethyl)-1H-benzo[d]imidazole-6-carboxylic acid], the EC50 at GLP-1R (setting [2]) was 37.1 nM. In data set [1], the “Predicted Hepatic Clearance (Pred. Cl.)” value was 3.83 mL/min/kg.
In the case of `COCCn1c(Cc2cc(F)c(-c3nccc(OCc4ccc(C#N)cc4F)n3)cc2F)nc2ccc(C(=O)O)cc21` [Example 159, 2-(4-(4-((4-cyano-2-fluorobenzyl)oxy)pyrimidin-2-yl)-2,5-difluorobenzyl)-1-(2-methoxyethyl)-1H-benzo[d]imidazole-6-carboxylic acid], it took 7.78 nM to reach a half-maximal effect on GLP-1R (EC50 (nM)) (EC50). The “Predicted Hepatic Clearance (Pred. Cl.)” value in data set [1] was 6 mL/min/kg.
For the compound `COCCn1c(Cc2cc(F)c(-c3ncc(F)c(OCc4ccc(C#N)cc4F)n3)cc2F)nc2ccc(C(=O)O)cc21` [Example 160, 2-(4-(4-((4-cyano-2-fluorobenzyl)oxy)-5-fluoropyrimidin-2-yl)-2,5-difluorobenzyl)-1-(2-methoxyethyl)-1H-benzo[d]imidazole-6-carboxylic acid], the EC50 at GLP-1R (setting [2]) stood at 10.2 nM. The “Predicted Hepatic Clearance (Pred. Cl.)” value in data set [1] was 5 mL/min/kg.
On the same counts, the results for `N#Cc1ccc(COc2nc(-c3cc(F)c(Cc4nc5ccc(C(=O)O)cc5n4CC4(CF)CC4)cc3F)ncc2F)c(F)c1` [Example 161, 2-(4-(4-((4-cyano-2-fluorobenzyl)oxy)-5-fluoropyrimidin-2-yl)-2,5-difluorobenzyl)-1-((1-(fluoromethyl)cyclopropyl)methyl)-1H-benzo[d]imidazole-6-carboxylic acid] are 1 nM and 3.83 mL/min/kg.
For `N#CCC1(Cn2c(Cc3ccc(-c4ccc(F)c(OCc5ccc(C#N)cc5F)n4)cc3F)nc3ccc(C(=O)O)cc32)CC1` [Example 162, 2-(4-(6-((4-cyano-2-fluorobenzyl)oxy)-5-fluoropyridin-2-yl)-2-fluorobenzyl)-1-((1-(cyanomethyl)cyclopropyl)methyl)-1H-benzo[d]imidazole-6-carboxylic acid], in that order: 0.17 nM and below 1.83 mL/min/kg.
For the compound `N#Cc1ccc(COc2cccc(-c3cc(F)c(Cc4nc5ccc(C(=O)NS(=O)(=O)C6CC6)cc5n4C[C@@H]4CCO4)cc3F)n2)c(F)c1` [Example 163, (S)-2-(4-(6-((4-cyano-2-fluorobenzyl)oxy)pyridin-2-yl)-2,5-difluorobenzyl)-N-(cyclopropylsulfonyl)-1-(oxetan-2-ylmethyl)-1H-benzo[d]imidazole-6-carboxamide], on GLP-1R (setting [2]), the EC50 came out at 1.41 nM. Further, the “Predicted Hepatic Clearance (Pred. Cl.)” value in data set [1] was 5 mL/min/kg.
For `COCCn1c(Cc2cc(F)c(-c3ccc(F)c(NCc4ccc(C#N)cc4F)n3)cc2F)nc2ccc(C(=O)O)cc21` [Example 164, 2-(4-(6-((4-cyano-2-fluorobenzyl)amino)-5-fluoropyridin-2-yl)-2,5-difluorobenzyl)-1-(2-methoxyethyl)-1H-benzo[d]imidazole-6-carboxylic acid], in that order: 32.9 nM and 6.7 mL/min/kg.
For `N#CCC1(Cn2c(Cc3ccc(-c4ccc(F)c(OCc5ccc(C#N)cc5F)n4)cc3F)nc3c(F)cc(C(=O)O)cc32)CC1` [Example 165, 2-(4-(6-((4-cyano-2-fluorobenzyl)oxy)-5-fluoropyridin-2-yl)-2-fluorobenzyl)-1-((1-(cyanomethyl)cyclopropyl)methyl)-4-fluoro-1H-benzo[d]imidazole-6-carboxylic acid], in that order: 0.01 nM and 4 mL/min/kg.
Take `N#Cc1ccc(COc2nc(-c3cc(F)c(Cc4nc5ccc(C(=O)O)cc5n4C[C@@H]4CCO4)c(F)c3F)ncc2F)c(F)c1` [Example 166, (S)-2-(4-(4-((4-cyano-2-fluorobenzyl)oxy)-5-fluoropyrimidin-2-yl)-2,3,6-trifluorobenzyl)-1-(oxetan-2-ylmethyl)-1H-benzo[d]imidazole-6-carboxylic acid]: the EC50 at GLP-1R (setting [2]) came out at 0.06 nM. For the same compound, in data set [1], the “Predicted Hepatic Clearance (Pred. Cl.)” value was 4.83 mL/min/kg.
For `N#Cc1ccc(COc2nc(-c3cc(F)c(Cc4nc5c(F)cc(C(=O)O)cc5n4CC4(CF)CC4)cc3F)ncc2F)c(F)c1` [Example 167, 2-(4-(4-((4-cyano-2-fluorobenzyl)oxy)-5-fluoropyrimidin-2-yl)-2,5-difluorobenzyl)-4-fluoro-1-((1-(fluoromethyl)cyclopropyl)methyl)-1H-benzo[d]imidazole-6-carboxylic acid], in that order: 0.11 nM and 6 mL/min/kg.
Take `N#CCC1(Cn2c(Cc3ccc(-c4ccnc(OCc5ccc(C#N)cc5F)n4)cc3F)nc3c(F)cc(C(=O)O)cc32)CC1` [Example 168, 2-(4-(2-((4-cyano-2-fluorobenzyl)oxy)pyrimidin-4-yl)-2-fluorobenzyl)-1-((1-(cyanomethyl)cyclopropyl)methyl)-4-fluoro-1H-benzo[d]imidazole-6-carboxylic acid]: the EC50 at GLP-1R (setting [2]) was 1.06 nM. For the same compound, the “Predicted Hepatic Clearance (Pred. Cl.)” value in data set [1] is below 1.83 mL/min/kg.
In the case of `COCCn1c(Cc2ccc(-c3ncc(F)c(OCc4ccc(C#N)cc4F)n3)c(F)c2F)nc2ccc(C(=O)O)cc21` [Example 169, 2-(4-(4-((4-cyano-2-fluorobenzyl)oxy)-5-fluoropyrimidin-2-yl)-2,3-difluorobenzyl)-1-(2-methoxyethyl)-1H-benzo[d]imidazole-6-carboxylic acid], the EC50 on GLP-1R (setting [2]) stood at 4.31 nM. In addition, in data set [1], the “Predicted Hepatic Clearance (Pred. Cl.)” value is 5.33 mL/min/kg.
On the same counts, the results for `COCCn1c(Cc2ccc(-c3cccc(NCc4ccc(C#N)cc4F)n3)cc2F)nc2ccc(C(=O)O)cc21` [Example 170, 2-(4-(6-((4-cyano-2-fluorobenzyl)amino)pyridin-2-yl)-2-fluorobenzyl)-1-(2-methoxyethyl)-1H-benzo[d]imidazole-carboxylic acid] are 509 nM and 6.33 mL/min/kg.
For `COCCn1c(Cc2ccc(-c3cccc(OCc4ccc(C#N)cc4F)n3)cc2C(F)(F)F)nc2ccc(C(=O)O)cc21` [Example 172, 2-(4-(6-((4-cyano-2-fluorobenzyl)oxy)pyridin-2-yl)-2-(trifluoromethyl)benzyl)-1-(2-methoxyethyl)-1H-benzo[d]imidazole-carboxylic acid], in that order: 38 nM and 9.5 mL/min/kg.
Regarding `COCCn1c(Cc2ccc(-c3cccc(OCc4ccc(C#N)cc4F)n3)cc2C2=CCN(C(=O)OC(C)(C)C)CC2)nc2ccc(C(=O)O)cc21` [Example 173, 2-(2-(1-(tert-butoxycarbonyl)-1,2,3,6-tetrahydropyridin-4-yl)-4-(6-((4-cyano-2-fluorobenzyl)oxy)pyridin-2-yl)benzyl)-1-(2-methoxyethyl)-1H-benzo[d]imidazole-6-carboxylic acid], the EC50 at GLP-1R (setting [2]) amounted to 774 nM. In addition, in data set [1], the “Predicted Hepatic Clearance (Pred. Cl.)” value is 5 mL/min/kg.
For the compound `COCCn1c(Cc2c(F)cc(-c3cccnc3OCc3ccc(Cl)cc3F)cc2F)nc2ccc(C(=O)O)cc21` [Example 174, 2-(4-(2-((4-chloro-2-fluorobenzyl)oxy)pyridin-3-yl)-2,6-difluorobenzyl)-1-(2-methoxyethyl)-1H-benzo[d]imidazole-carboxylic acid], the EC50 on GLP-1R (setting [2]) was determined as 32.9 nM. Further, in data set [1], the “Predicted Hepatic Clearance (Pred. Cl.)” value is 5.67 mL/min/kg.
For `COCCn1c(Cc2ccc(-c3cccc(OCc4ccc(C#N)cc4F)n3)cc2-c2ccncc2)nc2ccc(C(=O)O)cc21` [Example 175, 2-(4-(6-((4-cyano-2-fluorobenzyl)oxy)pyridin-2-yl)-2-(pyridin-4-yl)benzyl)-1-(2-methoxyethyl)-1H-benzo[d]imidazole-6-carboxylic acid], in that order: 9270 nM and 15.7 mL/min/kg.
For `COCCn1c(Cc2ccc(-c3cccc(OCc4ccc(C#N)cc4F)n3)cc2-c2ccsc2)nc2ccc(C(=O)O)cc21` [Example 176, 2-(4-(6-((4-cyano-2-fluorobenzyl)oxy)pyridin-2-yl)-2-(thiophen-3-yl)benzyl)-1-(2-methoxyethyl)-1H-benzo[d]imidazole-6-carboxylic acid], in that order: 273 nM and below 1.83 mL/min/kg.
For `COCCn1c(Cc2c(F)cc(-c3nccnc3OCc3ccc(C#N)cc3F)cc2F)nc2ccc(C(=O)O)cc21` [Example 177, 2-(4-(3-((4-cyano-2-fluorobenzyl)oxy)pyrazin-2-yl)-2,6-difluorobenzyl)-1-(2-methoxyethyl)-1H-benzo[d]imidazole-carboxylic acid], in that order: 335 nM and 7 mL/min/kg.
As for `COCCn1c(Cc2ccc(-c3cccc(OCc4ccc(C#N)cc4F)n3)cc2C2CC2)nc2ccc(C(=O)O)cc21` [Example 178, 2-(4-(6-((4-cyano-2-fluorobenzyl)oxy)pyridin-2-yl)-2-cyclopropylbenzyl)-1-(2-methoxyethyl)-1H-benzo[d]imidazole-6-carboxylic acid], the EC50 on GLP-1R (setting [2]) stood at 32.5 nM. Further, in data set [1], the “Predicted Hepatic Clearance (Pred. Cl.)” value is 9.83 mL/min/kg.
Consider `COCCn1c(Cc2c(F)cc(-c3cccnc3OCc3ccc(C#N)cc3F)cc2F)nc2ccc(C(=O)O)cc21` [Example 179, 2-(4-(2-((4-cyano-2-fluorobenzyl)oxy)pyridin-3-yl)-2,6-difluorobenzyl)-1-(2-methoxyethyl)-1H-benzo[d]imidazole-carboxylic acid], for which the 50% effective concentration (EC50) on GLP-1R (setting [2]) is 45.6 nM. Besides, the “Predicted Hepatic Clearance (Pred. Cl.)” value in data set [1] was 3.5 mL/min/kg.
For `COCCn1c(Cc2ccc(-c3cccnc3OCc3ccc(C#N)cc3F)cc2F)nc2ccc(C(=O)O)cc21` [Example 180, 2-(4-(2-((4-cyano-2-fluorobenzyl)oxy)pyridin-3-yl)-2-fluorobenzyl)-1-(2-methoxyethyl)-1H-benzo[d]imidazole-carboxylic acid], the EC50 on GLP-1R (setting [2]) came out at 257 nM. The “Predicted Hepatic Clearance (Pred. Cl.)” value in data set [1] is 6.33 mL/min/kg.
